PubChem BioAssay AID1963985 (Molecular Pharmacology Branch, DTP, NCI, 2024)

Test system: 252836-082-R-J2-PDC tumor spheroids, viability
Assay: Anticancer human tumor 252836-082-R-J2-PDC patient-derived head and neck squamous cell carcinoma cell line growth inhibition [PI3K]
Settings: spheroids with HUVEC and MSC; for IC50: curve of first compound; for viability, T/C: stronger effect = lower value
Method in brief: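 High-throughput combination screen: PI3K inhibitors crossed with targeted small molecules on complex spheroids of tumor cells, HUVEC and MSCs at 37 degrees C, 5% CO2. Top concentration was at or near clinical Cmax (otherwise 10 microM), with half-log decrements.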

[1] = second compound 0.0316 µM, first compound 0.0316 µM
[2] = second compound 0.0316 µM, first compound 0.1 µM
[3] = second compound 0.0316 µM, first compound 0.316 µM
[4] = second compound 0.0316 µM, first compound 1 µM
[5] = second compound 0.0316 µM, first compound 3.16 µM
[6] = second compound 0.0316 µM, first compound 10 µM
[7] = second compound 0.1 µM, first compound 0.0316 µM
[8] = second compound 0.1 µM, first compound 0.1 µM
[9] = second compound 0.1 µM, first compound 0.316 µM
[10] = second compound 0.1 µM, first compound 1 µM
[11] = second compound 0.1 µM, first compound 3.16 µM
[12] = second compound 0.1 µM, first compound 10 µM
[13] = second compound 0.316 µM, first compound 0.0316 µM
[14] = second compound 0.316 µM, first compound 0.1 µM
[15] = second compound 0.316 µM, first compound 0.316 µM
[16] = second compound 0.316 µM, first compound 1 µM
[17] = second compound 0.316 µM, first compound 3.16 µM
[18] = second compound 0.316 µM, first compound 10 µM
[19] = second compound 1 µM, first compound 0.0316 µM
[20] = second compound 1 µM, first compound 0.1 µM
[21] = second compound 1 µM, first compound 0.316 µM
[22] = second compound 1 µM, first compound 1 µM
[23] = second compound 1 µM, first compound 3.16 µM
[24] = second compound 1 µM, first compound 10 µM
[25] = second compound 3.16 µM, first compound 0.0316 µM
[26] = second compound 3.16 µM, first compound 0.1 µM
[27] = second compound 3.16 µM, first compound 0.316 µM
[28] = second compound 3.16 µM, first compound 1 µM
[29] = second compound 3.16 µM, first compound 3.16 µM
[30] = second compound 3.16 µM, first compound 10 µM
[31] = second compound 10 µM, first compound 0.0316 µM
[32] = second compound 10 µM, first compound 0.1 µM
[33] = second compound 10 µM, first compound 0.316 µM
[34] = second compound 10 µM, first compound 1 µM
[35] = second compound 10 µM, first compound 3.16 µM
[36] = second compound 10 µM, first compound 10 µM
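Also: spheroids exposed to agents for seven days before readout.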
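For viability, T/C in this document: percent of vehicle DMSO control viability so 100% = untreated growth.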

SMILES: C=CC(=O)N1CCN(c2nc(=O)n(-c3c(C)ccnc3C(C)C)c3nc(-c4c(O)cccc4F)c(F)cc23)C(C)C1 (centres undefined) + Cc1nc(NC(=O)N2CCCC2C(N)=O)sc1-c1ccnc(C(C)(C)C(F)(F)F)c1
- IC50 (second compound 0.0316 µM): > 10 µM
- IC50 (second compound 0.1 µM): > 10 µM
- IC50 (second compound 0.316 µM): > 10 µM
- IC50 (second compound 1 µM): > 10 µM
- IC50 (second compound 3.16 µM): < 0.0316 µM
- IC50 (second compound 10 µM): < 0.0316 µM
- viability, T/C [1]: 101%
- viability, T/C [2]: 87.1%
- viability, T/C [3]: 104%
- viability, T/C [4]: 95.7%
- viability, T/C [5]: 107%
- viability, T/C [6]: 107%
- viability, T/C [7]: 78.5%
- viability, T/C [8]: 82.1%
- viability, T/C [9]: 101%
- viability, T/C [10]: 79.5%
- viability, T/C [11]: 105%
- viability, T/C [12]: 95.8%
- viability, T/C [13]: 79.9%
- viability, T/C [14]: 83.2%
- viability, T/C [15]: 76%
- viability, T/C [16]: 86.5%
- viability, T/C [17]: 84.5%
- viability, T/C [18]: 80.9%
- viability, T/C [19]: 61.2%
- viability, T/C [20]: 60.4%
- viability, T/C [21]: 80.3%
- viability, T/C [22]: 73%
- viability, T/C [23]: 64.9%
- viability, T/C [24]: 75.9%
- viability, T/C [25]: 47.2%
- viability, T/C [26]: 49.1%
- viability, T/C [27]: 50.2%
- viability, T/C [28]: 49.2%
- viability, T/C [29]: 74%
- viability, T/C [30]: 44.9%
- viability, T/C [31]: 37.2%
- viability, T/C [32]: 34.5%
- viability, T/C [33]: 36.3%
- viability, T/C [34]: 36.5%
- viability, T/C [35]: 40.2%
- viability, T/C [36]: 42.2%

SMILES: Cn1nccc1Nc1nccc(-c2ccn(C(CO)c3ccc(Cl)c(F)c3)c(=O)c2)n1 (centres undefined) + Cc1nc(NC(=O)N2CCCC2C(N)=O)sc1-c1ccnc(C(C)(C)C(F)(F)F)c1
- IC50 (second compound 0.0316 µM): > 10 µM
- IC50 (second compound 0.1 µM): > 10 µM
- IC50 (second compound 0.316 µM): > 10 µM
- IC50 (second compound 1 µM): 7.54 µM
- IC50 (second compound 3.16 µM): < 0.0316 µM
- IC50 (second compound 10 µM): < 0.0316 µM
- viability, T/C [1]: 87%
- viability, T/C [2]: 91%
- viability, T/C [3]: 91%
- viability, T/C [4]: 97.9%
- viability, T/C [5]: 104%
- viability, T/C [6]: 66%
- viability, T/C [7]: 87.4%
- viability, T/C [8]: 85.7%
- viability, T/C [9]: 79.8%
- viability, T/C [10]: 90.6%
- viability, T/C [11]: 81.3%
- viability, T/C [12]: 62.4%
- viability, T/C [13]: 74.7%
- viability, T/C [14]: 66.6%
- viability, T/C [15]: 81.7%
- viability, T/C [16]: 72.8%
- viability, T/C [17]: 79.4%
- viability, T/C [18]: 57.6%
- viability, T/C [19]: 70.8%
- viability, T/C [20]: 61.9%
- viability, T/C [21]: 63.2%
- viability, T/C [22]: 64.6%
- viability, T/C [23]: 58%
- viability, T/C [24]: 47.3%
- viability, T/C [25]: 42.2%
- viability, T/C [26]: 46.1%
- viability, T/C [27]: 56.9%
- viability, T/C [28]: 45%
- viability, T/C [29]: 41.9%
- viability, T/C [30]: 33.5%
- viability, T/C [31]: 34.4%
- viability, T/C [32]: 37.2%
- viability, T/C [33]: 34.3%
- viability, T/C [34]: 23.6%
- viability, T/C [35]: 24.5%
- viability, T/C [36]: 11.8%
